# From ChEMBL document CHEMBL1126876, “Synthesis of paraxanthine analogs (1,7-disubstituted xanthines) and other xanthines unsubstituted at the 3-position: structure-activity relationships at adenosine receptors” (J Med Chem, 1993)
# Tests used:
# Adenosine A2 receptor = Adenosine A2 receptor (Rattus norvegicus, UniProt P29276+P30543); assay: Binding affinity against Adenosine A2 receptor in rat striatal membranes using [3H]5'-(N-ethylcarboxamido)-adenosine (NECA) as the ligand; assay type: cell membranes, Striatum, Membrane
# Adenosine receptor A1 [1] = molecular target: T1, Adenosine receptor A1 (Rattus norvegicus, UniProt P25099); assay: Binding affinity at Adenosine A1 receptor in rat brain cortical membrane using [3H]N6-R-phenylisopropyladenosine (R-PIA) as radioligand; assay type: cell membranes
# T1 sequence (P25099 whole entry): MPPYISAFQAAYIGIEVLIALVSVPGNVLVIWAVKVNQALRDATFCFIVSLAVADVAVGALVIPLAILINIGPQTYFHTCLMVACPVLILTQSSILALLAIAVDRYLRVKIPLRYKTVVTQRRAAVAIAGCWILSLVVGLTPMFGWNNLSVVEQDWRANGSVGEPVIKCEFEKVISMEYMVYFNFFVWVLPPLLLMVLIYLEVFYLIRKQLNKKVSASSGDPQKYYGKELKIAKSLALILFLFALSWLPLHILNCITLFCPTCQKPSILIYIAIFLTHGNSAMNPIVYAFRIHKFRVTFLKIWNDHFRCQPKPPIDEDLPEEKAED
# [2] = molecular target: T2, Adenosine receptor A1 (Rattus norvegicus) (UniProt P25099); assay: Binding affinity at Adenosine A1 receptor in rat brain cortical membrane using [3H]- N6-R-phenylisopropyladenosine (R-PIA) at 100 uM; assay type: cell membranes
# T2 sequence (whole entry): T1 sequence (P25099 whole entry)
# Adenosine receptor A1 [3] = molecular target: T1, Adenosine receptor A1; assay: Binding affinity at A1 adenosine receptor in rat brain cortical membrane using [3H]- N6-R-phenylisopropyladenosine (R-PIA); assay type: cell membranes
# [4] = molecular target: T3, Adenosine A2 receptor (Rattus norvegicus) (UniProt P29276+P30543); assay: Binding affinity at Adenosine A2 receptor in rat striatal membrane using [3H]- 5'-N-ethylcarboxamidoadenosine (NECA) at 1 uM; assay type: cell membranes; settings: Striatum
# [5] = molecular target: T2, Adenosine receptor A1 (Rattus norvegicus); assay: Binding affinity at A1 adenosine receptor in rat brain cortical membrane using [3H]- N6-R-phenylisopropyladenosine (R-PIA) at 250 uM; assay type: cell membranes
# [6] = molecular target: T3, Adenosine A2 receptor (Rattus norvegicus); assay: Binding affinity at Adenosine A2 receptor in rat striatal membrane using [3H]- 5'-N-ethylcarboxamidoadenosine (NECA) at 200 uM; settings: Striatum
# [7] = molecular target: T3, Adenosine A2 receptor (Rattus norvegicus); settings: Striatum, Membrane, at 250 µM
# Description: Binding affinity at Adenosine A2 receptor in rat striatal membrane using [3H]- 5'-N-ethylcarboxamidoadenosine (NECA) at 250 uM
# [8] = molecular target: T2, Adenosine receptor A1 (Rattus norvegicus); settings: Brain, at 250 µM
# [9] = molecular target: T3, Adenosine A2 receptor (Rattus norvegicus); assay: Binding affinity at Adenosine A2 receptor in rat striatal membrane using [3H]- 5'-N-ethylcarboxamidoadenosine (NECA) at 200 uM; assay type: cell membranes; settings: Striatum
# [10] = molecular target: T2, Adenosine receptor A1 (Rattus norvegicus); assay: Binding affinity at Adenosine A1 receptor in rat brain cortical membrane using [3H]- N6-R-phenylisopropyladenosine (R-PIA) at 250 uM; assay type: cell membranes
# [11] = molecular target: T2, Adenosine receptor A1 (Rattus norvegicus); assay: Binding affinity at Adenosine A1 receptor in rat brain cortical membrane using [3H]- N6-R-phenylisopropyladenosine (R-PIA) at 200 uM
# [12] = molecular target: T3, Adenosine A2 receptor (Rattus norvegicus); assay: Binding affinity at Adenosine A2 receptor in rat striatal membrane using [3H]- 5'-N-ethylcarboxamidoadenosine (NECA) at 20 uM; assay type: cell membranes; settings: Striatum
# [13] = molecular target: T2, Adenosine receptor A1 (Rattus norvegicus); assay: Binding affinity at Adenosine A1 receptor in rat brain cortical membrane using [3H]- N6-R-phenylisopropyladenosine (R-PIA); assay type: cell membranes; settings: concentration not given here
SMILES,Ki (Adenosine A2 receptor),Ki (Adenosine receptor A1 [1]),other results
C#CCn1c(=O)[nH]c2[nH]cnc2c1=O,26 µM,20 µM,
CCCCn1c(=O)[nH]c2[nH]cnc2c1=O,61 µM,,
Cn1c(=O)[nH]c2[nH]cnc2c1=O [1-METHYLXANTHINE],47 µM,36 µM,
Cn1c(=O)[nH]c(=O)c2[nH]cnc21 [3-METHYLXANTHINE],59 µM,,inhibition [2]: 24%
O=c1[nH]c(=O)c2[nH]c(-c3ccccc3)nc2[nH]1,21 µM,,Ki (Adenosine receptor A1 [3]): 2.5 µM
CCCn1c(=O)[nH]c2ncn(C)c2c1=O,29 µM,21 µM,
C#CCn1c(=O)[nH]c2ncn(C)c2c1=O,16 µM,22 µM,
O=c1[nH]c2[nH]c(-c3ccccc3)nc2c(=O)n1CCc1ccccc1,,,inhibition [4]: 0%
CN1CN(C)c2c(O)nc(O)nc21,,,inhibition [5]: 5%; inhibition [6]: 6%
CCCn1cnc2c(=O)[nH]c(=O)[nH]c21,,,inhibition [5]: 42%; inhibition [7]: 15%
C#CCn1c(=O)c2c(nc(-c3ccccc3)n2C)n(C)c1=O,6.4 µM,6.1 µM,
O=c1[nH]c2[nH]cnc2c(=O)n1C1CCCC1,13 µM,11 µM,
Cn1cnc2[nH]c(=O)[nH]c(=O)c21 [7-METHYLXANTHINE],59 µM,33 µM,
O=c1[nH]c2nc(-c3ccccc3)[nH]c2c(=O)n1CCc1ccccc1,,0.19 µM,
CC(=O)Cn1c(=O)[nH]c2[nH]c(C3CCCC3)nc2c1=O,9.7 µM,2.5 µM,
C#CCn1c(=O)[nH]c2[nH]c(-c3ccccc3)nc2c1=O,0.73 µM,0.21 µM,
Cn1cnc2c(=O)[nH]c(=O)n(C)c21,,,inhibition [8]: 42%; inhibition [9]: 11%
Cn1c(=O)[nH]c(=O)c2[nH]c(-c3ccccc3)nc21,,3.4 µM,inhibition [7]: 17%
O=c1[nH]c2nc[nH]c2c(=O)n1CCc1ccccc1,,12 µM,
C#CCn1cnc2[nH]c(=O)n(C)c(=O)c21,14 µM,9.9 µM,
CCCn1c(=O)c2nc[nH]c2n(C)c1=O,37 µM,5.7 µM,
O=c1[nH]c2[nH]cnc2c(=O)n1Cc1ccccc1,22 µM,2.8 µM,
O=c1[nH]c2nc(-c3ccccc3)[nH]c2c(=O)n1Cc1cccc(Cl)c1,,,Ki (Adenosine receptor A1 [3]): 0.068 µM
CCCn1cnc2[nH]c(=O)[nH]c(=O)c21,,18 µM,inhibition [9]: 40%
CCCn1c(=O)[nH]c2[nH]cnc2c1=O,33 µM,13 µM,
CCn1c(=O)c2nc[nH]c2n(CC)c1=O,31 µM,3.7 µM,
CC(C)n1c(=O)[nH]c(=O)c2[nH]cnc21,53 µM,,inhibition [2]: 34%

SMILES,Ki (Adenosine A2 receptor),Ki (Adenosine receptor A1 [1]),other results
O=c1[nH]c2[nH]cnc2c(=O)n1Cc1cccc(Cl)c1,26 µM,4.9 µM,
CC(C)n1c(=O)n(C)c(=O)c2[nH]cnc21,16 µM,,
C=CCn1c(=O)[nH]c2[nH]cnc2c1=O,10 µM,9.2 µM,
C=CCn1cnc2c1c(=O)[nH]c(=O)n2CC=C,36 µM,36 µM,
C=CCn1c(=O)c2[nH]c(-c3ccccc3)nc2n(C)c1=O,2.1 µM,0.1 µM,
Cn1c(=O)[nH]c2ncn(C)c2c1=O [PARAXANTHINE],32 µM,21 µM,
CCCn1c(=O)[nH]c(=O)c2[nH]c(-c3ccc(S(=O)(=O)O)cc3)nc21,,,inhibition [7]: 44%; inhibition [10]: 40%
Cn1c(=O)[nH]c2[nH]c(-c3ccccc3)nc2c1=O,2.2 µM,0.26 µM,
CCCn1c(=O)n(C)c(=O)c2[nH]cnc21,19 µM,6.3 µM,
CCCn1c(=O)[nH]c2[nH]c(C3CCCC3)nc2c1=O,0.58 µM,0.014 µM,
Cn1c(=O)[nH]c2c(ncn2C)c1=O,,,inhibition [11]: 11%; inhibition [9]: 14%
CCn1c(=O)[nH]c2[nH]c(-c3ccccc3)nc2c1=O,1.8 µM,0.15 µM,
CCCCn1cnc2[nH]c(=O)[nH]c(=O)c21,66 µM,27 µM,
CCn1c(=O)c2nc[nH]c2n(C)c1=O,23 µM,,
O=c1[nH]c2[nH]cnc2c(=O)n1CCc1ccccc1,,,inhibition [12]: 0%
Cn1c(=O)[nH]c(=O)c2[nH]c(-c3ccc(S(=O)(=O)O)cc3)nc21,,,inhibition [7]: 16%; inhibition [13]: 5%
CCCn1c(=O)[nH]c2nc(-c3ccc(S(=O)(=O)O)cc3)[nH]c2c1=O,24 µM,2.2 µM,
CCn1c(=O)[nH]c2[nH]c(C3CCCCC3)nc2c1=O,2.3 µM,,
O=c1[nH]c2[nH]c(-c3ccccc3)nc2c(=O)n1Cc1cccc(Cl)c1,,,inhibition [4]: 32%
CC(C)Cn1c(=O)c2nc[nH]c2n(CC(C)C)c1=O,,4 µM,
CCCn1c(=O)[nH]c(=O)c2[nH]c(C3CCCCC3)nc21,24 µM,,
C#CCn1c(=O)c2[nH]cnc2n(C)c1=O,4.8 µM,0.82 µM,
CCCn1c(=O)[nH]c2[nH]c(-c3ccccc3)nc2c1=O,1.9 µM,,
CCCn1c(=O)[nH]c(=O)c2[nH]c(-c3ccccc3)nc21,61 µM,,
CC(C)Cn1c(=O)n(C)c(=O)c2nc[nH]c21 [ISOBUTYLMETHYLXANTHINE],16 µM,,
CC(C)CCn1c(=O)c2nc[nH]c2n(CC(C)C)c1=O,11 µM,,
C#CCn1c(=O)[nH]c2[nH]c(C3CCCCC3)nc2c1=O,1.7 µM,0.17 µM,
